Earlier results, collected in patent US20240374627A1, “A PHARMACEUTICAL COMPOSITION COMPRISING COMBINATION OF SITAGLIPTIN AND EMPAGLIFLOZIN” (UNISON PHARMACEUTICALS PVT. LTD., priority 2021, published 2024).
Where two headings read alike, the source gives them in different places.

What was measured:
[1] = healthy volunteers; Brand et al., Adv Ther 2012

| solubility (N,N-dimethyl formamide) | solubility (acetone) | solubility (acetonitrile) | solubility (ethanol) | solubility (isopropanol) | solubility (isopropyl acetate) | solubility (methanol) | solubility (water) | solubility (aqueous media between pH 1-7.4, European assessment report of Jardiance) | solubility (toluene) | solubility (water (pH 1-7.4)) | SMILES | effect of coadministration on the pharmacokinetics of either drug [1] |
| --- | --- | --- | --- | --- | --- | --- | --- | --- | --- | --- | --- | --- |
| soluble | soluble | soluble | soluble | insoluble | insoluble | slightly soluble | soluble | – | – | – | N[C@@H](CC(=O)N1CCn2c(nnc2C(F)(F)F)C1)Cc1cc(F)c(F)cc1F [Sitagliptin, 7-[(3R)-3-amino-1-oxo-4-(2,4,5-trifluorophenyl)butyl]-5,6,7,8-tetrahydro-3-(trifluoromethyl)-1,2,4-triazolo[4,3-a]pyrazine phosphate (1:1) monohydrate] | without specifying any clinically relevant effect |
| – | – | slightly soluble | slightly soluble | – | – | sparingly soluble | – | slightly soluble | practically insoluble | very slightly soluble | OC[C@H]1O[C@@H](c2ccc(Cl)c(Cc3ccc(O[C@H]4CCOC4)cc3)c2)[C@H](O)[C@@H](O)[C@@H]1O [Empagliflozin, (1S)-1,5-anhydro-1-(4-chloro-3-{4-[(3S)-tetrahydrofuran-3-yloxy]benzyl}phenyl)-D-glucitol] | without specifying any clinically relevant effect |
